{"source": "patent US12529108B2", "about": "“Compositions, methods and kits for characterizing and screening for small cell ovarian carcinoma” (THE TRANSLATIONAL GENOMICS RESEARCH INSTITUTE, priority 2014, dated 2026)", "key": {"[1]": {"test_system": "BIN67", "test": "Pilot compound screen (LOPAC and Prestwick libraries), cell viability (CellTiter Glo)", "type": "cell-based, human", "settings": "5 μM and 10 μM; viability at 72 hours post-treatment; shared hits from HepG2 counterscreen filtered out", "from_the_text": "The BIN67 cell line has been characterized for optimal growth conditions, doubling time, cell seeding density, FBS concentration, siRNA transfection conditions (transfection reagent and lipid-to-siRNA ratio to achieve transfection efficiency of 95% or higher), and DMSO tolerance. We have also banked large numbers of BIN67 cells from the same passage to facilitate future screening. Furthermore, we have performed pilot compound and RNAi screens on this cell line.\nIn BIN67 we screened the LOPAC and Prestwick chemical libraries, diverse libraries of small molecules with good bioavailability and toxicity profiles. These libraries contain 2,400 drugs with subsets of FDA-approved drugs and pharmacologically active compounds. We completed 2 runs in BIN67 with duplicates at concentrations of 5 μM and 10 μM and measured cell viability at 72 hours post-treatment with CellTiter Glo (Promega). The high quality screen was exceeded NIH standards with covariance <5% and Z′-factor 0.83-0.91. […] Notable classes of lead compounds enriched in these hits included 9 cardiac glycosides, 6 tubulin polymerization inhibitors, 2 topoisomerase II inhibitors, and 2 Src/FGFR family kinase inhibitors. In particular, the tubulin inhibitors vincristine and […] are currently used clinically for SCCOHT patients. This serves as a positive confirmation for the robustness and reliability of our screen."}, "[2]": {"test_system": "SCCOHT cell lines", "test": "FGFR compounds profiling in a drug dose-dependent manner, cell viability", "type": "cell-based", "settings": "Homo sapiens; both SCCOHT cell lines (FIG. 22B)", "description": "FIGS. 22A and 22B show the characterization of FGFR and MERTK inhibition in BIN67 cell line. […] Four unique sequences per target were tested; GFP sequence is used as a negative scramble control. Cell viability was measured using CellTiter Glo.\nOur finding of FGFRs as synthetic lethal targets, in both our HT-RNAi and compound pilot screens, in SCCOHT is novel. […] As we also identified FGFR inhibitors in our pilot compound screen, we further tested 8 FGFR inhibitors in vitro."}, "[3]": {"test_system": "SMARCA2 protein", "test": "SMARCA2 protein level by Western blotting after HDAC inhibitor treatment", "type": "cell-based, human", "settings": "BIN67 and SCCOHT1 cells; Western blotting (FIG. 18B)", "from_the_text": "FIGS. 18A-18D depict characterization of SMARCA4/A2 expression in SCCOHT cell lines. […] FIGS. 18C and 18D show Lentivirus-based re-expression of SMARCA4/A2 in BIN67 cells inhibits cell growth.\nTo understand the roles of these two mutually exclusive ATPases in SCCOHT etiology, we will elucidate the epigenetic consequences of re-expression of one or both SWI/SNF complex ATPases in SCCOHTs."}, "[4]": {"test_system": "SMARCA4/A2 negative SCCOHT cell lines BIN67 and SCCOHT1", "test": "High-throughput screen of epigenetic agents, cell viability (CellTiter Glo)", "type": "cell-based, human", "settings": "3-fold 20-point dilution series, viability 3 days after treatment (FIG. 21)", "description": "FIG. 21 depicts SCCOHT sensitivity to epigenetic agents. Cells plated at 1,000 cells/well in a 384-well plate were treated with indicated agents using a serial 3-fold 20-point dilution series. Cell viability was measured 3 days after treatment using CellTiter Glo. Surviving cells were measured and normalized to DMSO-treated cells and IC50s calculated by curve-fitting.\nThus, as in MRTs, targeting epigenetic modifications may have therapeutic potential in SCCOHT. To evaluate the activity of a panel of epigenetic drugs in SCCOHT we performed high-throughput screening in the SMARCA4/A2 negative SCCOHT cell lines BIN67 and SCCOHT1. Effects of epigenetic modifiers from all main classes of epigenetic agents—modifiers of acetylated histones as well as inhibitors of DNA methylation, histone methyltransferases and HDACs—are shown in FIG. 21. BIN67 and SCCOHT1 cells are […] sensitive to many of these agents. […] We have found HDAC2 to be overexpressed in most SCCOHTs including these cell lines."}}}
{"smiles": "COc1cc([C@@H]2c3cc4c(cc3[C@@H](O[C@@H]3O[C@@H]5CO[C@@H](C)O[C@H]5[C@H](O)[C@H]3O)[C@H]3COC(=O)[C@H]23)OCO4)cc(OC)c1O", "note": "[etoposide]", "values": [{"measurement": "hypersensitivity (screen hit) of BIN67", "setting": "[1]", "value": "hypersensitivity"}]}
{"smiles": "Cc1ccc(C(=O)Nc2ccc(CN3CCN(C)CC3)c(C(F)(F)F)c2)cc1C#Cc1cnc2cccnn12", "note": "[ponatinib]", "values": [{"measurement": "IC50", "setting": "[2]", "value": "5 to 333", "unit": "nM"}]}
{"smiles": "CC(/C=C/C(=O)NO)=C\\[C@@H](C)C(=O)c1ccc(N(C)C)cc1", "note": "[trichostatin A]", "values": [{"measurement": "upregulation of SMARCA2 protein", "setting": "[3]", "value": "dose-dependent upregulation"}]}
{"smiles": "CC[C@]1(O)C[C@H]2CN(CCc3c([nH]c4ccccc34)[C@@](C(=O)OC)(c3cc4c(cc3OC)N(C=O)[C@H]3[C@@](O)(C(=O)OC)[C@H](OC(C)=O)[C@]5(CC)C=CCN6CC[C@]43[C@@H]65)C2)C1", "note": "[vincristine]", "values": [{"measurement": "hypersensitivity (screen hit) of BIN67", "setting": "[1]", "value": "hypersensitivity"}]}
{"smiles": "C/C=C1\\NC(=O)[C@H]2CSSCC/C=C/[C@H](CC(=O)N[C@H](C(C)C)C(=O)N2)OC(=O)[C@H](C(C)C)NC1=O", "note": "[Rombidepsin, Romidepsin]", "values": [{"measurement": "sensitivity of SCCOHT cells to epigenetic agents", "setting": "[4]", "value": "most sensitive"}]}
